Test results: patent US20170198027A1 (priority 2012, published 2017)
“And” between values parts separate entries of the source, which are not always exact repeats. Identical values can stand only once. Like-named read-outs stand apart in the source and are kept apart here.

Assays:
[1] = system: ApoE ko mice fed with high fat diet
Source text: 10 ApoE ko mice were fed with regular chow diet and used as negative control group. 50 ApoE ko mice were fed with high fat diet (35% kcal fat, 1% cholesterol) for 8 weeks, and then the plasma samples were collected for lipid profile measurement before the treatment. 50 ApoE ko mice were assigned into 5 groups based on the fasting overnight plasma TC and HDL level.
19 Mar. 2012 to 6 Apr. 2012: Group the mice based on the TC and HDL level and start the treatment with 3 doses of antibody APOA1 by i.p daily on the weekday (The first dose was administered by iv injection
13 Apr. 2012-14 May 2012: The treatment with antibody APOA1 was changed to i.p injection every two days (Monday, Wednesday, and Friday) per client's instruction.
Antibody products were administrated by intraperitoneal injection every two days (Monday, Wednesday, and Friday). and the positive compound was administered by p.o every day.
5.4. Body weight and blood glucose measurement: The body weight was weighed weekly during the period of treatment. The fasting overnight blood glucose was measured at the end of study by Roche glucometer.
5.5 24 h food intake measurement: 24 hours food intake for each cage was measured weekly
5.6. Plasma lipid profile measurement: About 300 ul of blood sample was collected from the orbital vein for each mouse and centrifuged at 7000 rpm for 5 min at 4° C. and the plasma lipid profile was measured by Roche Modular automatic biochemistry analyzer in DaAn Medical Laboratory
After RAAS antibody products treatment for 8 weeks, all mice were sacrificed. Measured body weight and collected blood sample for each mouse. Weighed liver weight and saved a tiny piece of liver into 4% paraformaldehyde (PFA) fixation solution for further analysis. At same time, take the photos with heart, lung, aortas and two kidneys.
Scanning the glasses slides with the Aperio ScanScope system and analyze with the image proplus software to measure the area of atherosclerotic plaque session. The results were expressed as the percentage of the total aortic surface area covered by lesions. The operation procedure of software was briefly described as follow: Converted the sys version photos into JPG version, then calibrated it and subsequently selected the red regions and then calculate the total area automatically by image proplus software.
(§1) The results were expressed as the Mean±SEM and statistically evaluated by student's t-test.

HBV = HBV mouse hydrodynamic injection model; format: in vivo, BALB/c mice
Description: 3.1.1. From day −7 to day 0, all 5 mice in group 4 were administrated i.p./i.v. with test article daily for 8
3″ 1.2″ On day 0, all groups of mice were hydrodynamicly injected via tail vein with pcDNA3.1/HBV plasmid DNA in a volume of normal saline equal to 8% of a mouse body weight. The plasmid DNA solution for injections was prepared one day before injection and then stored in 4GC until injection”
[…] […] For group 4, the last dosing was carried out 4 hours post HOI.
3.1.4. All mice were submandibularly blec! for plasma preparation according to the design in Table 1.
3.1.5. All mice were sacrificed and c!issectec! to obtain livers (two pieces of left lobe, one piece of middle lobe and one piece of right lobe) according to the regimen in table 1. Isolated livers were snap frozen in liquid nitrogen immec!iately upon collected.
3.2.1.1 Isolate DNA from 50 pi plasma using QIAamp 96 DNA Blood Kit. DNA was eluted with
3.2.12 Run qPCR for HBV DNA quantification.
To eliminate the influence of input HBV plasmid, primers and probe targeting HBV sequence which detect newly replicated HBV DNA and input HBV plasmid DNA and targeting pcDNA3.1 plasmid backbone sequence which only detect the input plasmid DNA were used to do real-time PCR, respectively”
HBV DNA quantity=DNA determined by HBV primer-DNA determined by plasmid primer.
Dilute the plasma 500 fold;
Detect HBsAg level in 50 pl diluted plasma by using HBsAg ELISA kit.
a) Homogenize the liver tissue with Qiagen Tissue Lyser in 10 mM Tris.HCI, 10 mM EDTA, pH7.5.
The total liver DNA was diluted to 10 ng/pl. Use 10 iJI diluted sample to run real-time PCR. HBV DNA quantity=DNA determined by HBV primer-DNA determined by plasmid primer.
a) Load 50 pg DNA for each sample. Run •1.2% agarose gel in 1×TAE.

[2] = system: New Zealand white rabbit fed with high fat diet; conditions: rabbit, in vivo
Description: The treatment groups were given APOAJ via auricular vein once a week Vehicle controls received normal saline via auricular vein once a week. […] The body weight of animal was determined every week and whole blood was drawn every three weeks. The study duration was 19 weeks. At the end of study, all animals were sacrificed. […] Male New Zealand white rabbits were used in this study. […] Blood samples were taken 12 hour after fasting before study to determine the blood lipid parameters. […] Ten to 14 rabbits were in one group. […] First dose was given 1 week before high fat diet. […] 5.2 blood lipid parameters: whole blood was drawn every three weeks. Animals were subject to 12 hour fast before taking blood. […] The upper layer of serum was then separated and examined for total cholesterol (TC), total triglyceride (TG), low density lipoprotein cholesterin (LDL-C), and high density lipoprotein cholesterin (HDL-C). Test reagents were purchased from Shanghai A: The atherosclerosis of aorta (plaque area lj) B: Liver index C: Aorta, liver, heart, arteria carotis, kidney All animals were anesthetized by 20 of ethyl carbamate and then sacrificed with air injection. Abdomen cavity was opened. Whole blood was taken from heart. Heart was harvested along with 7 em of aorta. Then other organs like liver, kidney and arteria carotis were harvested. […] Pictures were taken then. Aorta was cut from aortic arch, opened longitudinally and taken picture. […] One piece of this sample was fixed in fomlalin for further pathological analysis. The weight of liver was determined immediately. Two pieces of specimen were cut from hepatic lobe. One was kept in cryo-preservation tube for lipid analysis and another one was fixed in formalin for further pathological analysis. Animals were fast for 12 hours before taking blood samples via auricular vein. […] Test reagents were purchased from Shanghai Rong Sheng Bio-pharmaceutical Co. Ltd. The aorta was dissected and opened for 7.5 em from aortic arch longitudinally. Pictures were taken and atherosclerosis changing was analyzed.

Influenza H1N1 A/WSN/33 [3] = format: in vivo, BALB/c mice
Influenza H1N1 A/WSN/33 [4] = format: in vivo, BALB/c mice; conditions: oseltamivir 30 mg/kg/day po/bid
Influenza H1N1 A/WSN/33 [5] = format: in vivo, BALB/c mice; remark: listed apart in the source
db/db mice = system: db/db mice
Description: Fasting 6 hours and overnight blood glucose were measured. 60 db/db mice were assigned into 5 grouped based on the fasting 6 h blood glucose and body weight. […] 8 db/rn lean mice was used as negative control group […]
5.2. Study duration: This study was conducted in two periods: Period 1: Oct. 13, 2011-Feb. […] 13-Mar. 16, 2012: Test 3 antibody products
Feb. 13, 2012: Start the treatment with 3 antibodies by i.p every two days (Monday, Wednesday, Friday) after 8 weeks washout from previous treatment.
Antibody products were administrated by intraperitoneal injection and the positive compound was mixed into food at the dose 30 rng/kg/day.
5.4. Body weight and blood glucose measurement: Fasting 6 hours body weight and blood glucose concentration were measured by Roche giucometer weekly.
5.5. Plasma insulin measurement: About 30 ul of blood sample was collected from the orbital vein for each mouse and centrifuged 7000 rpm at 4° C. for 5 min. Plasma samples were saved in −70 l-::. The plasma insulin level was measured with EUSA kit (CRYSTAL, cat#90080), 5.6. Plasma lipid profile measurement: The plasma lipid profile were measured by the DaAn Clinic central lab.
5.7. Study taken down: After 14 dose antibody products treatment, all mice were sacrificed. Measure body weight and collect blood sample for each mouse. Measure liver weight and save one piece for pathology study and freeze one piece in liquid nitrogen for further analysis in the future. Save pancreas into 4% paraformaldehyde (PFA) fixation solution for future analysis.
as §1

HCV = HCV replicon dose-dependent curves (figure legends, genotype not stated); format: cell-based; conditions: FIG. 44/45 legends
Source text: FIGS. 44-1 through 44-18.
FIGS. 451 through 45-18-.
FIGS. 44-1 through 44-18. Dose-dependent curves (CC 50 values)
FIG. 45-1 through 45-18 Dose-dependent curves (EC50 values)

[6] = system: 4T1-luc breast cancer cells; conditions: vs vehicle group
Description: The cell suspension was carried to the animal room in an ice box. […] Totally 80 mice were selected and divided into 10 groups. All mice were monitored daily.
Tumor growth status was monitored by both IVIS Lumina II and a digital caliper twice weekly since the day after cell implantation.
For IVIS Lumina II measurement, bioluminescence intensity of primary tumor and metastatic tumor was obtained according to the following procedure:
1. Tumor-bearing mice were \Neighted and intra peritoneally administered luciferin at a dose of 150 mg/kg (10 ml/kg);
2. After 10 min, mice were pre-anesthetized with the mixture of oxygen and isoflurane. […]
3. ROI data was calculated with IVIS Lumina II software and relative ROI was calculated to express the tumor growth status. […]
Tumor size was measured twice a week in two dimensions using a caliper. and the tumor volume (V) was expressed in mm3 using the formula: V=0.5 a×b2 where a and bare the long and short diameters […]
2. […] Body weights were measured and recorded twice weekly.
TGI (tumor growth inhibition, in percent) was calculated according to the following equation: […]
T/C (%) was calculated based on the tumor volume data collected on Day 27.
The difference between the mean values of tumor volume in treatment and vehicle groups was analyzed for significance using one way ANOVA test at each time point after log transformation.

CC(C)c1c(C(=O)Nc2ccccc2)c(-c2ccccc2)c(-c2ccc(F)cc2)n1CC[C@@H](O)C[C@@H](O)CC(=O)O [Atorvastatin, reference compound]
arteriosclerosis plaque lesion in the region of thoracic aorta (root plaque area) ([1]; APOA1 mid dose and low dose, not significant vs vehicle): trend of reducing the arteriosclerosis plaque lesion | fasting overnight blood glucose ([1]; after 8 weeks treatment vs vehicle): no effect | atherosclerosis plaque lesion area of aorta ([1]; after 8 weeks treatment, APOA1 low dose): significant reduced the plaque lesion area | Liver weight ([1]; atorvastatin 20 mg/kg, after 8 weeks treatment): reduced liver weight and the ratio of liver/body weight significantly | atherosclerosis plaque lesion from the aortic root to right renal artery ([1]; atorvastatin p=0.08): trend of reducing the atherosclerosis plaque lesion | body weight ([1]; vs vehicle group, atorvastatin after 5 weeks treatment): significantly reduced the body weight

C=C1[C@H](CO)[C@@H](O)C[C@@H]1n1cnc2c(=O)[nH]c(N)nc21 [ETV, Entecavir]
HBV intermediate DNA in livers (real-time PCR) (HBV; ETV day 5, RASS 8 prophylactic treatment day 7): significantly decreased the HBV intermediate DNA in liver | ssDNA, HBV replication intermediate DNA in livers (southern blot) (HBV; RASS 8 prophylactic treatment or ETV treatment): decreased dramatically | inhibition to the HBV replication (plasma) (HBV; therapeutically treated, from day 3 post HDI to end): significant inhibition | HBsAg level in plasma (ELISA) (HBV; within 5 days post HBV HDI, RASS 8 therapeutic and prophylactic): didn't have significant inhibition

CC(C)c1c(C(=O)Nc2ccccc2)c(-c2ccccc2)c(-c2ccc(F)cc2)n1CC[C@@H](O)C[C@@H](O)CC(=O)O [Liptor, reference compound]
calcification, pathological examination [2]: one animal with calcification

CCOC(=O)C1=C[C@@H](OC(CC)CC)[C@H](NC(C)=O)[C@@H](N)C1 [Oseltamivir, Oseltamivir phosphate (prodrug)]
Mean day to death ± S.D. (Influenza H1N1 A/WSN/33 [3]; H1N1 + Oseltamivir 1 mg/kg, P<0.01 vs vehicle): >10 ± 0.0 days | survival (Influenza H1N1 A/WSN/33 [3]; oseltamivir po/bid): survived completely | survival (Influenza H1N1 A/WSN/33 [4]): survived completely | body weights dropped by (Influenza H1N1 A/WSN/33 [5]; mouse, in vivo): < 15% | survival (Influenza H1N1 A/WSN/33 [5]; oseltamivir 1 mg/kg orally twice daily for 8 days): survived and 4 out of 5

CCOC(=O)C1=C[C@@H](OC(CC)CC)[C@H](NC(C)=O)[C@@H](N)C1 [Oseltarnivir]
Survivor/total (Influenza H1N1 A/WSN/33 [5]; H1N1 + Oseltamivir po BID, dose cell prints 0.2/0.4 ml/mouse): 4/4 | Mean day to death ± S.D. (Influenza H1N1 A/WSN/33 [5]; H1N1 + Oseltamivir po BID, dose cell prints 0.2/0.4 ml/mouse, P<0.001 vs vehicle): >14 ± 0.0 days

CCc1ccc(CCOc2ccc(CC3SC(=O)NC3=O)cc2)nc1 (stereo not drawn) [Pioglitazone]
dead mice: kidney infection (db/db mice; Part 1, Positive group (30 mg/kg/day in food)): 1 | dead mice: kidney bleeding (db/db mice; db/db, mouse, in vivo, 32 days): 1 | fasting overnight BG (db/db mice; period 1): significantly lower blood glucose | body weight (db/db mice; period 1, AFOD 3 doses after 3 weeks, pioglitazone after 2 weeks): significantly increased body weight | blood glucose (fasting 6 h) (db/db mice; period 1, pioglitazone after 1 week, AFOD low dose after 8 doses): significantly reduced blood glucose | blood glucose (fasted 6 h) (db/db mice; period 2): significant difference on blood glucose | liver weight and ratio of liver/body weight (db/db mice; period 2): effect on reducing the ratio | overnight fasting blood glucose (db/db mice; period 2, after 4 weeks treatment): significantly reduced the fasting overnight blood glucose level | plasma triglyceride level (db/db mice; period 2, after 5 weeks treatment): significantly lowered | body weight (db/db mice; period 2, vs vehicle group): effect on increasing body weight | plasma insulin resistance (HOMA-IR) (db/db mice; period 2, AFOD after 14 doses (p=0.054), pioglitazone after 5 weeks (p=0.051)): trend on improving insulin resistance

NC(=O)c1ncn([C@@H]2O[C@H](CO)[C@@H](O)[C@H]2O)n1 [Ribavirin]
inhibition of HCV (HCV): 50%

Nc1ccn([C@@H]2O[C@H](CO)[C@@H](O)C2(F)F)c(=O)n1 [gemcitabine, reference compound]
one-way ANOVA analysis on tumor volume changes ([6]; Day 20): *′** | tumor volume ([6]; gemcitabine since day 13): significant tumor volume reduction

APOA 1
Wounded (number of mice) ([1]; APOA 1 high dose group): 1 | Dead (number of mice) ([1]; APOA 1 high dose group, reason: Kidney infection & i.v injection): 2 | Wounded (number of mice) ([1]; APOA 1 mid dose group): 1 | Dead (number of mice) ([1]; APOA 1 mid dose group, reason: Blood collection): 1
